Experimental data published in ChEMBL document CHEMBL3739323, “Design, synthesis, and biological evaluation of novel quinazolinyl-diaryl urea derivatives as potential anticancer agents” (Eur J Med Chem, 2016).

How the values were obtained:
Assay type in all cases: functional, cell-based
HepG2 = experiment: Antiproliferative activity against human HepG2 cells by MTT assay
A549 = experiment: Antiproliferative activity against human A549 cells by MTT assay
[1] = Antiproliferative activity against human MGC803 cells by MTT assay; settings: MGC-803

SMILES | IC50 (HepG2) | IC50 (A549) | IC50 [1]
O=C(Nc1cccc(CNc2ncnc3ccccc23)c1)Nc1ccccc1F | 17.5 µM | 26.1 µM | 33.4 µM
O=C(Nc1ccc(Cl)cc1)Nc1cccc(CNc2ncnc3ccccc23)c1 | > 50 µM | > 50 µM | 26.4 µM
O=C(Nc1ccc(F)cc1)Nc1cccc(CNc2ncnc3ccccc23)c1 | 41.5 µM | 21 µM | 44.3 µM
COc1ccccc1NC(=O)Nc1cccc(CNc2ncnc3cc(OC)c(OC)cc23)c1 | 27.2 µM | 15.2 µM | 7.71 µM
Cc1cccc(NC(=O)Nc2cccc(CNc3ncnc4ccccc34)c2)c1 | > 50 µM | 30.2 µM | 30.2 µM
COc1cc2ncnc(NCc3cccc(NC(=O)Nc4ccc(Cl)cc4)c3)c2cc1OC | > 50 µM | 30.4 µM | 44.2 µM
COc1cc2ncnc(NCc3cccc(NC(=O)Nc4ccccc4C)c3)c2cc1OC | > 50 µM | 21.4 µM | > 50 µM
COC(=O)c1ccccc1NC(=O)Nc1cccc(CNc2ncnc3ccccc23)c1 | > 50 µM | 29.4 µM | 9.63 µM
COc1cc2ncnc(NCc3cccc(NC(=O)Nc4ccccc4)c3)c2cc1OC | 19.7 µM | 17.1 µM | 10 µM
O=C(Nc1ccccc1)Nc1cccc(CNc2ncnc3ccccc23)c1 | > 50 µM | 18.4 µM | 13.2 µM
COc1cc2ncnc(NCc3cccc(NC(=O)Nc4ccc(F)cc4)c3)c2cc1OC | 36.6 µM | 16.9 µM | 42.1 µM
COc1cc2ncnc(NCc3cccc(NC(=O)Nc4ccccc4F)c3)c2cc1OC | 24.9 µM | 23.8 µM | 10.3 µM
Cc1ccc(NC(=O)Nc2cccc(CNc3ncnc4ccccc34)c2)cc1 | > 50 µM | 24.9 µM | 31.2 µM
COc1cc2ncnc(NCc3cccc(NC(=O)Nc4cccc(C)c4)c3)c2cc1OC | 21.5 µM | 27.1 µM | 44.6 µM
COc1cc2ncnc(NCc3cccc(NC(=O)Nc4cccc(C(F)(F)F)c4)c3)c2cc1OC | 34.2 µM | 35.3 µM | > 50 µM
O=C(Nc1ccc([N+](=O)[O-])cc1)Nc1cccc(CNc2ncnc3ccccc23)c1 | 24.6 µM | > 50 µM | 9.42 µM
